Experimental data taken from patent US8637684B2, “Tautomycetin and tautomycetin analog biosynthesis” (Wisconsin Alumni Research Foundation, priority 2010, dated 2014).
Where two headings read alike, the source gives them in different places.

Assays:
[1] = tested on: TCR-mediated ERK1/2 activation in Jurkat T cells; assay: Anti-CD3 (TCR) induced ERK1/2 activation in Jurkat T cells, immunoblot; type: cell-based; settings: 2 hours pretreatment, anti-CD3 stimulation
Procedure: Jurkat T cells were grown at 37° C. under an atmosphere of 5% CO2 in RPMI medium 1640 supplemented with 10% FBS. Cells were pretreated with different concentrations of TTN, TTN D-1, or TTM for 2 hours and stimulated with […] anti-CD3 antibody (OKT3; eBioscience) for 5 min and 30 min, respectively. Subsequently, cells were spinned down at 2000 rpm in 4° C., and cell pellets were lysed in 50 mM Tris-HCl (pH 7.5), 150 mM NaCl, 10% glycerol, 1% NP-40, 50 mM NaF, 10 mM pyrophosphate, 5 mM idoacetate, 1 mM sodium orthovanadate, and the protease inhibitor mixture. After 30 min lysing on ice, the cell lysates were centrifuged at 13,200 rpm for 15 min. Total cellular proteins were separated by SDS/PAGE and transferred electrophoretically to nitrocellulose membrane, which was immunoblotted by appropriate antibodies followed by incubation with HRP-conjugated secondary antibodies. Blots were developed using Pierce Pico ECL reagent (Thermo) according to the manufacturer's instructions.
TTN induces immunosuppression by suppression of TCR-mediated tyrosine phosphorylation and ERK1/2 activity in T cells (Shim et al., 2002). However, the mechanism of action for TTN's ability to block TCR signaling remains undefined. […]

[2] = molecular target: T1, CD45 (Homo sapiens, UniProt P08575); assay: PTP activity assay with pNPP as substrate: CD45; type: biochemical; settings: pNPP as substrate at Km, pH 7.0, 25° C., I = 0.15 M
T1 sequence (P08575 26-1306): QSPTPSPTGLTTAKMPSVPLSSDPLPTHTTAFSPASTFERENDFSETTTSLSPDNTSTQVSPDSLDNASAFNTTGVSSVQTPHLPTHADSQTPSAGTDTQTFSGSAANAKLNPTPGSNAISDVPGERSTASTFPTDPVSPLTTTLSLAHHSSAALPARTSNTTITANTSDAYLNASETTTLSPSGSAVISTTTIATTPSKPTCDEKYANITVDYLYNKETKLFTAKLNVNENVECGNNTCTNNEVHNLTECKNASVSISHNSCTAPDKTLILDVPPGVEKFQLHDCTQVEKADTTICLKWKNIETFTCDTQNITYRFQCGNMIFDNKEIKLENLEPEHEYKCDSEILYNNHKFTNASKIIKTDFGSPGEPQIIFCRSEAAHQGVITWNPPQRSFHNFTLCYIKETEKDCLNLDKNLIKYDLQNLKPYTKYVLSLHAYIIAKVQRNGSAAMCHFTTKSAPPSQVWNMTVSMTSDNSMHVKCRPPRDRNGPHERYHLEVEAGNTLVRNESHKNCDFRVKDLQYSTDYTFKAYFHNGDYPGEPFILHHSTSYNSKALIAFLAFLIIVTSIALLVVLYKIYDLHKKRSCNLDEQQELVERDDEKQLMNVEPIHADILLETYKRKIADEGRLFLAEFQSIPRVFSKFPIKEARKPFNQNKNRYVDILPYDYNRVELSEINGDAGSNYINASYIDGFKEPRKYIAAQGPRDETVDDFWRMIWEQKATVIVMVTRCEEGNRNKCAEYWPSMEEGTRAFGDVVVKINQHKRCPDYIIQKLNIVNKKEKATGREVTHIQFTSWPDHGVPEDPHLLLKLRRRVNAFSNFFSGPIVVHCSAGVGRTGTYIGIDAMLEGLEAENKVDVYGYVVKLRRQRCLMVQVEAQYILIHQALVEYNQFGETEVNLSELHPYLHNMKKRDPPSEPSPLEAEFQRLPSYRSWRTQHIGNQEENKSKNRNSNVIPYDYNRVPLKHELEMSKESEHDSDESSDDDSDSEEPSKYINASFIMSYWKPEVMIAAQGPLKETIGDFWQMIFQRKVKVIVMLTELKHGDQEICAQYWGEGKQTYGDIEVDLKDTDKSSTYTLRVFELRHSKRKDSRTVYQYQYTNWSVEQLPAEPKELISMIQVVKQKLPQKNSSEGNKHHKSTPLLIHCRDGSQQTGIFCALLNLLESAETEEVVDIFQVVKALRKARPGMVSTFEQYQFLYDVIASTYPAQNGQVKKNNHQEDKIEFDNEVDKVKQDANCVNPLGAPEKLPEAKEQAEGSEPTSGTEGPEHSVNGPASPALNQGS
Procedure: (§1) The PTP activity was assayed using pNPP as a substrate at 25° C. in 50 mM 3,3-dimethylglutarate buffer, pH 7.0, containing 1 mM EDTA with an ionic strength of 0.15 M adjusted by NaCl. TTM, TTN and the engineered analogs were analyzed for inhibition of a panel of PTPs at 10 μM compound concentration. For each enzyme screened, test compounds were diluted to 20 μM in 100 μL and combined with 50 μL pNPP at a concentration of 4×Km. The reaction was initiated by the addition of 50 μL of 4× concentrated enzyme and pNPP was allowed to convert to the product p-nitrophenol. The reaction was quenched by the addition of 50 μL of 5N NaOH. Nonenzymatic hydrolysis of pNPP was corrected by measuring the control without the addition of enzyme. Production of p-nitrophenol was monitored by a Spectra MAX385 microplate spectrophotometer (Molecular Devices) at 405 nm using a molar extinction coefficient of 18,000 M^−1 cm^−1. IC50 values were calculated by fitting the absorbance at 405 nm versus inhibitor concentration to the following equation: AI/A0=IC50/(IC50+[I]) where AI is the absorbance at 405 nm of the sample in the presence of inhibitor; Ao is the absorbance at 405 nm in the absence of inhibitor; and [I] is the concentration of the inhibitor.

[3] = tested on: T cell proliferation; settings: relative to cyclosporine A (CsA); cited from earlier work
[4] = tested on: human primary T-cell tyrosine phosphorylation; settings: Shim et al., 2002, cited from earlier work
[5] = molecular target: T2, PTP1B (Homo sapiens, UniProt P18031); assay: PTP activity assay with pNPP as substrate: PTP1B; type: biochemical; settings: pNPP as substrate at Km, pH 7.0, 25° C., I = 0.15 M
T2 sequence (P18031 1-435): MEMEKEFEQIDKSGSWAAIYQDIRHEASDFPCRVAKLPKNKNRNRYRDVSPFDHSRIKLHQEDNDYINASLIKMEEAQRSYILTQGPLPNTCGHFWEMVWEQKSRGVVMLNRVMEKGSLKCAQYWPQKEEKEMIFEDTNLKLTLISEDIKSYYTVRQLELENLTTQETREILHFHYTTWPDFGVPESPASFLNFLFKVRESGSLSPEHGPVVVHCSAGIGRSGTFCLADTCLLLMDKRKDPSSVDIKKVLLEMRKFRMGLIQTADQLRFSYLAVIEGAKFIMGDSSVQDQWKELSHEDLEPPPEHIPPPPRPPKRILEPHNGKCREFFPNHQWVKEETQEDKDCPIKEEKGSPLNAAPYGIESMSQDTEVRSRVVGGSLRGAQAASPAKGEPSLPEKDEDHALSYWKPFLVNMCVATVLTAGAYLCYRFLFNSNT
Procedure: as §1

[6] = molecular target: SHP1 (Homo sapiens, UniProt P29350); assay: PTP activity assay with pNPP as substrate: SHP1; type: biochemical; settings: pNPP as substrate at Km, pH 7.0, 25° C., I = 0.15 M
Sequence of SHP1 (P29350 whole entry): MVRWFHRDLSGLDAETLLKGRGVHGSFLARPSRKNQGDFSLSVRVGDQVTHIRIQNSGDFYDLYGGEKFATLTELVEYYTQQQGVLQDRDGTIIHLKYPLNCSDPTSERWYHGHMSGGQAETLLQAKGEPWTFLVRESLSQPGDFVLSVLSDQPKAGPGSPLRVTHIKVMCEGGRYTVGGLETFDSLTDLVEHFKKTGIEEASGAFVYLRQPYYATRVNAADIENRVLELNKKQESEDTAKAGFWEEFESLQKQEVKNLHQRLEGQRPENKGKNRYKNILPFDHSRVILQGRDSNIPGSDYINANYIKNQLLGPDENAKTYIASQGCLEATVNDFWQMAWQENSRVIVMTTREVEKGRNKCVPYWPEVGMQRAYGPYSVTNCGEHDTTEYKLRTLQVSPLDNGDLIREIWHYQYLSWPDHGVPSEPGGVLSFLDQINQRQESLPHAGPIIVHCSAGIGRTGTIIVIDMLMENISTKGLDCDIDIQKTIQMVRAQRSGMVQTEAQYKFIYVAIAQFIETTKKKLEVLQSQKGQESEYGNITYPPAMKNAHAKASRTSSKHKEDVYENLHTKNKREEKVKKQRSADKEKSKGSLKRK
Procedure: as §1

For tautomycetin [TTN], which “effect on TCR-mediated ERK1/2 activation” value [1] is on record?
The value was “strongly reduced”.

And the IC50 [2]?
Its IC50 is > 50 µM.

And the “concentration for inhibition of T cell proliferation, lower than that for maximal inhibition by cyclosporine A” value [3]?
The value was 100 fold.

And the “concentration inhibiting human primary T-cell tyrosine phosphorylation” value [4]?
The value was 1 µg/mL.

What about the “concentration inhibiting human primary T-cell tyrosine phosphorylation” value ([4]; same value converted) of the same substance?
Its value is 1.65 µM.

What about the IC50 [5] of the same substance?
The IC50 was 40 µM.

And the IC50 [6]?
The IC50 was 14.6 µM.
